Laboratory results reported in ChEMBL document CHEMBL3351582, “A simple, general approach of allosteric coagulation enzyme inhibition through monosulfated hydrophobic scaffolds” (Bioorg Med Chem Lett, 2014).
pIC50: −log10 of the molar value.

What was measured:
Prothrombin = Prothrombin (Homo sapiens, UniProt P00734); assay: Inhibition of human thrombin using spectrozyme TH as substrate by spectrophotometric assay
Coagulation factor XI = Coagulation factor XI (Homo sapiens, UniProt P03951); assay: Inhibition of human factor 11a by spectrophotometric assay; conditions: for pIC50: read-out: IC50
Coagulation factor X = Coagulation factor X (Homo sapiens, UniProt P00742); assay: Inhibition of human factor 10a by spectrophotometric assay; conditions: for pIC50: read-out: IC50
[1] = Anticoagulant activity in human […] assessed as concentration required to double prothrombin time; format: functional
[2] = Anticoagulant activity in human […] assessed as concentration required to double activated partial thromboplastin time; format: functional

Sequence of Coagulation factor XI (P03951 19-387 limits assumed): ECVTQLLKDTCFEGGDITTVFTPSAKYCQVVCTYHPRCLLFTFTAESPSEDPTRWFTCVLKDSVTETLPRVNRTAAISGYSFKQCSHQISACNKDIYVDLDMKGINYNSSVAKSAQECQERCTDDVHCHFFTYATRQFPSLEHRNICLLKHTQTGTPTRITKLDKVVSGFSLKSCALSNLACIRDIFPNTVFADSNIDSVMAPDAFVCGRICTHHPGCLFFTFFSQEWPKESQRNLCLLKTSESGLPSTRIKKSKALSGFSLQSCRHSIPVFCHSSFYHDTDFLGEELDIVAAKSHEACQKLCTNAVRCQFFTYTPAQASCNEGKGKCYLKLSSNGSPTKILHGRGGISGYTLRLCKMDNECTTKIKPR
Sequence of Coagulation factor XI (P03951 388-625 limits assumed): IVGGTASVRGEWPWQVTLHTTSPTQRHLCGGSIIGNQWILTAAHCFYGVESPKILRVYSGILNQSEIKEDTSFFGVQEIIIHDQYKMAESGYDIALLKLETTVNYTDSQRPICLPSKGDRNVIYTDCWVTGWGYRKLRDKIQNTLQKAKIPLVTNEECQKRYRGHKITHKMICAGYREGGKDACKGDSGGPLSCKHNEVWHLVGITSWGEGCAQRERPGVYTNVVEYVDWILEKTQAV
Sequence of Coagulation factor X (P00742 41-179 limits assumed): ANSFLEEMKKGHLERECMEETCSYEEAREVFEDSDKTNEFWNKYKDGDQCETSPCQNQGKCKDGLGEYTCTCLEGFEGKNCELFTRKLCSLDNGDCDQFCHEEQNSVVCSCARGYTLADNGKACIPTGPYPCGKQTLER
Sequence of Coagulation factor X (P00742 235-488 limits assumed): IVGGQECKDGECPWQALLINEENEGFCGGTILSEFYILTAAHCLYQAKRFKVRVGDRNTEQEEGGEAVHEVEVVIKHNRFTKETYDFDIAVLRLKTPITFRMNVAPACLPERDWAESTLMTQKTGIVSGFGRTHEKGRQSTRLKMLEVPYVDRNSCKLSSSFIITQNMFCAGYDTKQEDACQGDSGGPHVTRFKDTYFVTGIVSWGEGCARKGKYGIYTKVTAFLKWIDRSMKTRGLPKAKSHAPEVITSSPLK

SMILES	pIC50 (Prothrombin)	pIC50 (Coagulation factor XI)	pIC50 (Coagulation factor X)	IC50 (Coagulation factor XI)	IC50 (Coagulation factor X)	2PT [1] [µM]	2aPTT [2] [µM]
COc1cc2occ(C(=O)OC(C)(C)C)c2cc1OCc1nc2ccc(OS(=O)(=O)O)cc2s1	3.84	3.91	3.45	–	–	–	–
Cc1nc2ccc(OCc3nc4ccc(OS(=O)(=O)[O-])cc4s3)cc2s1.[Na+]	3.49	–	–	Not Active	Not Active	–	–
CCOC(=O)c1c(COc2cc3c(C(=O)OCC)c(Cc4ccccc4)oc3cc2OC)[nH]c2ccc(OS(=O)(=O)[O-])cc12.[Na+]	3.49	3.93	3.71	–	–	2361	1021
CCOC(=O)c1c(C)[nH]c2ccc(OCc3c(C(=O)OCC)c4cc(OS(=O)(=O)[O-])ccc4n3C(=O)OC(C)(C)C)cc12.[Na+]	3.37	3.66	3.64	–	–	1475	424
CCOC(=O)c1c(COc2cc3c(C(=O)OCC)c(COc4cc5c(C(=O)OCC)c(C)oc5cc4OC)oc3cc2OC)[nH]c2ccc(OS(=O)(=O)[O-])cc12.[Na+]	3.52	4.06	3.46	–	–	845	755
